# Measurements published in article PMC6256112, “Cannabinoid Receptor 2 Signalling Bias Elicited by 2,4,6-Trisubstituted 1,3,5-Triazines” (Frontiers in Pharmacology, 2018).
# Where two headings read alike, the source gives them in different places. Marks after values point to notes of the source that are not given here.
# Assays:
# hCB2 [1] = biological target: T1, hCB2 (Homo sapiens, UniProt P34972); assay: Radioligand competition binding with [3H]-CP 55,940 on hCB2-expressing HEK membranes; settings: for inhibition at 10 µM: 1 h, read-out: CB2 binding extent at 10 μM (%) (±SEM)
# T1 construct: expressed in transfected cells; host or cells: HEK Flp-in
# hCB1 = biological target: T2, hCB1 (Homo sapiens, UniProt P21554); assay: Radioligand competition binding screen with [3H]-CP 55,940 on hCB1-expressing HEK membranes; settings: for CB1 binding extent at 10 μM (%) (±SEM): 10 μM compound, displacement of 0.75 nM [3H]-CP 55,940; for CB2 selectivity over CB1 (in words): from CB1 binding at 10 μM versus CB2 affinity
# T2 construct: expressed in transfected cells; host or cells: HEK (membranes)
# hCB2 [2] = biological target: T1, hCB2; assay: hCB2 internalisation assay (immunocytochemistry of surface receptor), HEK Flp-in hCB2 cells; format: cell-based; set-up: Emax: dose or concentration left out as unconfirmed; settings: for logR [log(τ/KA)] (±SEM) Internalisation: operational model transduction ratio
# hCB2 [3] = biological target: T1, hCB2; assay: Real-time CAMYEL BRET cAMP assay, forskolin-stimulated HEK Flp-in hCB2 cells; format: cell-based; settings: for cAMP (5 min) Emax (±SEM): change relative to forskolin alone (100%), vehicle 0%, 10 and 14 approximate; for logR [log(τ/KA)] (±SEM) cAMP: operational model transduction ratio; for Emax: read-out: cAMP (5 min) Emax (±SEM)
# Description: Cellular cAMP levels were measured using a real-time BRET biosensor (CAMYEL) as previously described ([Cawston et al., 2013]). In brief, cells were seeded in 10 cm dishes one day prior to transfection. The medium was then replaced and cells transfected with 5 μg of pcDNA3L-His-CAMYEL (ATCC, Manassas, VA, United States) using linear PEI (MW 25 kDa; Polysciences, Warrington, PA, United States) with a DNA:PEI ratio of 1:6. Approximately 24 h after transfection, cells were trypsinised and re-plated in poly-D-lysine treated white 96-well plates (Corning), at a density of 5–6 × 10^4 cells per well. For experiments involving pertussis toxin (PTX; Sigma-Aldrich) pre-treatment, cells were seeded in half the usual volume of medium, and then ∼5 h later, 2× concentrated PTX or vehicle (50% glycerol, […] Tris–HCl pH 7.5, 10 mM glycine, 500 mM NaCl) were prepared in medium and added to the existing plating medium (giving rise to a final PTX concentration of 100 ng mL^-1). Approximately 24 h after plating (or 16–20 h after applying PTX/vehicle in experiments involving PTX treatment), cells were washed once with Hank’s Balanced Salt Solution (HBSS, Thermo Fisher Scientific, catalogue #14025-134), and then equilibrated for 30 min in HBSS supplemented with 1 mg mL^-1 BSA. Coelenterazine h (final concentration 5 μM; NanoLight Technologies, Pinetop, AZ, United States) was added to each well and incubated for 5 min. Forskolin was added (final concentration 5 μM) and incubated for 6 min (allowing enough time for the induced cAMP increase to plateau), prior to vehicle/drug addition. All drugs and reagents were prepared in HBSS supplemented with 1 mg mL^-1 BSA. SR 144528 was a generous gift from Roche (Basel, Switzerland).
# Assays were carried out in technical duplicate. Emissions were detected at 460 nm (Rluc) and 535 nm (YFP) with either a LUMIstar® Omega luminometer (BMG Labtech, Ortenberg, Germany) or CLARIOstar® (BMG Labtech). BRET ratios (535 nm emissions/460 nm emissions, where an increase in ratio corresponds to a decrease in cAMP) were normalised to pre-forskolin reads (i.e., with coelenterazine h present) to remove any variability present prior to addition of forskolin and drug/vehicle. A Lowess curve (GraphPad Prism) was fitted to individual technical replicates within an assay so that cAMP signalling data could be extrapolated from any time point as opposed to only those that were empirically measured (typically every 30–60 s). Data were normalised to matched vehicle (0%) and forskolin (100%) treatments, allowing compilation of data from independent experiments.
# HEK Flp-in wt cells = assay: CAMYEL cAMP assay in HEK Flp-in wt cells (non-hCB2-mediated effects); format: cell-based, human; settings: for Non-hCB2-mediated effects on cAMP (in words): HEK Flp-in wt
# hCB2 [4] = biological target: T1, hCB2; assay: pERK AlphaLISA assay, HEK Flp-in hCB2 cells; format: cell-based; settings: for Behaviour in pERK pathway (in words): 4 min; for logR [log(τ/KA)] (±SEM) pERK: operational model transduction ratio; for Time of maximal pERK response: time course experiment; for Emax: read-out: pERK (4 min) Emax (±SEM)
# hCB2 [5] = biological target: T1, hCB2; assay: Comparison of efficacy/potency and operational-model bias analysis between hCB2 pathways, reference CP 55,940; format: cell-based; settings: for Internalisation – pERK Bias factor / cAMP – internalisation Bias factor / cAMP – pERK Bias factor: 10^ΔΔlogR; for Internalisation – pERK Bias factor / cAMP – internalisation Bias factor / cAMP – pERK Bias factor / Between-pathway signalling bias (in words): relative to CP 55,940; for Internalisation – pERK ΔΔlogR (±SEM) / cAMP – internalisation ΔΔlogR (±SEM) / cAMP – pERK ΔΔlogR (±SEM): relative to reference ligand CP 55,940
# physchem = format: physicochemical; settings: organic solvent or mixture
# From the text: The piperazine-containing 1,3,5-triazines 1 and 7, assembled following literature protocols (compound “26a” in [Yrjölä et al., 2013]; compound “8” in [Yrjölä et al., 2015], respectively), were alkylated with various alkyl bromide linkers containing a Boc-protected amine at the terminus to give 3, 4, 8, 9 and 10 (Schemes 1, 2). These were then Boc-deprotected using acidic conditions to give primary amines 5, 6, 11, 12, and 13. One example of an acetylated linker (14) was also synthesised. Thirteen compounds were biologically tested (Table 1); five compounds had been reported previously (1, 2, 7, 15, 16) ([Yrjölä et al., 2013], [2015]), and the remainder were novel (5, 6, 9–14). […] 7 was therefore assayed in a higher final DMSO content (1%) than the other compounds (0.1%). Both vehicle concentrations were controlled for in all assays (negative/vehicle and positive controls).
# CB2 = test system: CB2; set-up: method as in Yrjölä et al., 2015; settings: ref Yrjölä et al., 2015; cited from earlier work
# [6] = 10 μM compound, displacement of 0.5 nM [3H]-CP 55,940
# [7] = compared to methylpiperazinyl-15
# [8] = heterologous competition vs [3H]-CP 55,940, read-out: CB2 pKi (±SEM) (converted)
# [9] = 5 min post-drug, 5 μM forskolin, 10 and 14 approximate (non-hCB2-mediated effects), read-out: cAMP (5 min) pEC50 (±SEM) (converted)
# [10] = 5 min post-drug, 5 μM forskolin
# [11] = 4 min stimulation, 14 approximate (low potency), read-out: pERK (4 min) pEC50 (±SEM) (converted)
# [12] = read-out: Internalisation (1 h) Emax (±SEM)
# T1 sequence (P34972 whole entry): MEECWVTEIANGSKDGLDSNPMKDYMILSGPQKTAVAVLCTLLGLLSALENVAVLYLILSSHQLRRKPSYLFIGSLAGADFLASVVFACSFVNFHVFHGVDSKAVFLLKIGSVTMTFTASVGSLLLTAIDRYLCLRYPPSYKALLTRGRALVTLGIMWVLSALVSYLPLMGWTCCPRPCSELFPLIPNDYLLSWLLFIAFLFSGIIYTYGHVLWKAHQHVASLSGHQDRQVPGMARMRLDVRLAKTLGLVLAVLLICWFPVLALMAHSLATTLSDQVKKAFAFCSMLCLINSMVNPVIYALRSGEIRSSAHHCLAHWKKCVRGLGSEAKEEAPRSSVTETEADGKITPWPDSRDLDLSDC
# T2 sequence (P21554 whole entry): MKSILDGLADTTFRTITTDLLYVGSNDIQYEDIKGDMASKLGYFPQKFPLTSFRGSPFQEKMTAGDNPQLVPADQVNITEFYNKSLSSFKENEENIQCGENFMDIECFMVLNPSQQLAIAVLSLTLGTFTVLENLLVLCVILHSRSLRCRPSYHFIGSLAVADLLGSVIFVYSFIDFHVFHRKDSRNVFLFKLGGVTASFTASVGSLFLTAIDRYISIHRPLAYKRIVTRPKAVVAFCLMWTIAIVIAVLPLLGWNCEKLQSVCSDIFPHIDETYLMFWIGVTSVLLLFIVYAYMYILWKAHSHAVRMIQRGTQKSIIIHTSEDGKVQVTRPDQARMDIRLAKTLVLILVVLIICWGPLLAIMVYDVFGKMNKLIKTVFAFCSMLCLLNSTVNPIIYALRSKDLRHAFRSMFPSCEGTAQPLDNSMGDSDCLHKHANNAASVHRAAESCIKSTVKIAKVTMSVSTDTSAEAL
SMILES,inhibition at 10 µM (hCB2 [1]; [6]) [%],Ki (hCB2 [1]; [8]) [µM],CB1 binding extent at 10 μM (%) (±SEM) (hCB1),CB2 selectivity over CB1 (in words) (hCB1),EC50 (hCB2 [2]; 1 h stimulation) [µM],logR [log(τ/KA)] (±SEM) Internalisation (hCB2 [2]),EC50 (hCB2 [3]; [9]) [µM],cAMP (5 min) Emax (±SEM) (hCB2 [3]; [10]),logR [log(τ/KA)] (±SEM) cAMP (hCB2 [3]),Non-hCB2-mediated effects on cAMP (in words) (HEK Flp-in wt cells),Behaviour in pERK pathway (in words) (hCB2 [4]),logR [log(τ/KA)] (±SEM) pERK (hCB2 [4]),Time of maximal pERK response (hCB2 [4]) [min],Internalisation – pERK Bias factor (hCB2 [5]),cAMP – internalisation Bias factor (hCB2 [5]),cAMP – pERK Bias factor (hCB2 [5]),Between-pathway signalling bias (in words) (hCB2 [5]),Internalisation – pERK ΔΔlogR (±SEM) (hCB2 [5]),cAMP – internalisation ΔΔlogR (±SEM) (hCB2 [5]),cAMP – pERK ΔΔlogR (±SEM) (hCB2 [5]),also measured
"CCOc1nc(NC23CC4CC(CC(C4)C2)C3)nc(N2CCNCC2)n1 [Compound 7, N-(ad-amantan-1-yl)-4-ethoxy-6-(piperazin-1-yl)-1,3,5-triazi n-2-amine]",85.6,0.417,13.7 (4.1) %,likely also CB2-selective,0.0457,7.42 (0.26),0.0851,–43.0 (3.0) %,7.29 (0.26),most pronounced effects,weak partial agonists,5.51 (0.05),4,15.4,1.3,20.3,away from activation of pERK,1.19 (0.16)***,0.12 (0.31),1.31 (0.27)***,"Reduction in hCB2 affinity compared to 15 (hCB2 [1]; [7]): ~100 fold; Emax at 10 µM (hCB2 [2]; read-out: Internalisation (1 h) Emax (±SEM), 1 h stimulation, change in surface hCB2 relative to vehicle-treated (100%), for 13 efficacy at 10 μM): -61.4%; EC50 (hCB2 [4]; [11]): 1.82 µM; solubility (physchem): 1000 µM; GTPγS activity, % of maximum measured activity (CB2): ~60%"
"CCOc1nc(NC23CC4CC(CC(C4)C2)C3)nc(N2CCN(CCOCCOCCNC(C)=O)CC2)n1 [Compound 14, N-(2-(2-(2-(4-(4-((Adamantan-1-yl)Amino)-6-Ethoxy-1,3,5-Triazin-2-yl)Piperazin-1-yl)Ethoxy)Ethoxy) Ethyl)Acetamide]",,,–18.8 (11.4) %,likely also CB2-selective,,6.81 (0.23),,,5.83 (0.23),,,5.16 (0.09),4,8.6,0.2,1.6,biased towards internalisation,0.93 (0.13)**,–0.73 (0.25)*,0.20 (0.25),Ki (hCB2 [1]): 1.78 µM; inhibition at 10 µM (hCB2 [1]): 76.2%; Reduction in hCB2 binding affinity compared to 15 (hCB2 [1]; [7]): 2–3 log units; EC50 (hCB2 [2]): 0.174 µM; Emax (hCB2 [2]; [12]): -61.8%; EC50 (hCB2 [3]): 0.955 µM; Behaviour in cAMP pathway (in words) (hCB2 [3]; 5 μM forskolin): partial agonists; Emax (hCB2 [3]): -29.8%; Non-hCB2-mediated cAMP effects: fold less potent than cAMP inhibition in hCB2-expressing cells (HEK Flp-in wt cells; HEK Flp-in wt versus HEK Flp-in hCB2): ~5 fold; EC50 (hCB2 [4]): 7.41 µM; Emax (hCB2 [4]): 4.66%
"CCOc1nc(NC23CC4CC(CC(C4)C2)C3)nc(N2CCN(C)CC2)n1 [Compound 15, N-(Adamantan-1-yl)-4-ethoxy-6-(4-methylpiperazin-1-yl)-1,3,5-triazin-2-amine]",,,,somewhat CB2-selective,,8.92 (0.09),,,8.12 (0.09),,"equivalent efficacies to CP 55,940",7.45 (0.10),4,5.7,0.3,1.6,biased towards internalisation,0.76 (0.15)*,–0.56 (0.15),0.20 (0.13),"Ki (hCB2 [1]): 0.00427 µM; inhibition at 10 µM (hCB2 [1]): 92.9%; EC50 (hCB2 [2]): 0.00123 µM; Emax (hCB2 [2]; [12]): -56.5%; EC50 (hCB2 [3]): 0.00794 µM; Emax (hCB2 [3]): -39.6%; EC50 (hCB2 [4]): 0.0355 µM; Emax (hCB2 [4]): 9.96%; Functional GTPγS selectivity for CB2 versus CB1 (CB2): 1000 to 10,000 fold; GTPγS functional behaviour (in words) (CB2): full agonist"
"CCOc1nc(NC23CC4CC(CC(C4)C2)C3)nc(N2CCN(CCF)CC2)n1 [Compound 16, N-(adamantan-1-yl)-4-et hoxy-6-(4-(2-fluoroethyl)piperazin-1-yl)-1,3,5-triazin-2-amine]",95.6,0.00162,,somewhat CB2-selective,0.0012,8.90 (0.19),0.00282,–35.6 (2.2) %,8.52 (0.19),most pronounced effects,,7.84 (0.07),4,2.2,0.7,1.6,did not demonstrate any indication of between-pathway bias,0.35 (0.13),–0.14 (0.22),0.21 (0.20),"Behaviour in internalisation pathway (in words) (hCB2 [2]; 1 h stimulation): significantly less efficacious; EC50 (hCB2 [4]; [11]): 0.0123 µM; Efficacy relative to maximal efficacy measured across all compounds, all three pathways (hCB2 [5]): ~80%; Emax (hCB2 [5]; read-out: Efficacy relative to maximal efficacy measured across all compounds, all three pathways, internalisation, cAMP and pERK): 75 to 80%; Functional GTPγS selectivity for CB2 versus CB1 (CB2): 1000 to 10,000 fold; GTPγS activity, % of maximum measured activity (CB2): ~70%"
